The results in this text go back to PubChem BioAssay AID720671 (NMMLSC, 2013).

Calls of active or inactive are those of the source. The rule behind the calls is not given here.

This test has as its target Botulinum neurotoxin type F light chain protease (Clostridium botulinum). Kind of test: inhibition of botulinum toxin F protease cleavage – biochemical, multiplex microsphere, Powder Set 03, dose response (AID 720671). Conditions: multiplex microsphere protease cleavage assay, BoNT/F LC.
Turning to `CCCNC(=O)Nc1ccc2nc(-c3ccccc3)c(-c3ccccc3)nc2c1`, the EC50 was > 20 µM (inactive). In the case of `CCC(=O)Nc1ccc2nc(-c3ccccc3)c(-c3ccccc3)nc2c1`, the EC50 was > 20 µM (inactive). On to `COC(=O)Nc1ccc2nc(-c3cccs3)c(-c3cccs3)nc2c1`, for which the EC50 was > 20 µM (inactive). Consider `CS(=O)(=O)c1ccc(-c2cn3nc(-c4ccccc4)c(-c4ccccc4)nc3n2)cc1`, for which the EC50 was > 20 µM (inactive). Next, `CS(=O)(=O)c1ccc(-c2cn3nc(-c4ccc(F)cc4)c(-c4ccc(F)cc4)nc3n2)cc1`: > 20 µM (inactive). Turning to `COc1ccc(-c2nc3nc(-c4ccc(C#N)cc4)cn3nc2-c2ccc(OC)cc2)cc1`, the EC50 was > 20 µM (inactive).

Consider `Fc1ccc(-c2nc3nc(-c4ccc(OC(F)(F)F)cc4)cn3nc2-c2ccc(F)cc2)cc1`, for which the EC50 is > 20 µM (inactive).

On to `O=C(Nc1ccc2nc(-c3ccccc3)c(-c3ccccc3)nc2c1)NC1CCCC1`, for which the EC50 is > 20 µM (inactive).

`O=C(Nc1ccc2nc(-c3ccccc3)c(-c3ccccc3)nc2c1)C1CCC1`: the EC50 was > 20 µM (inactive). As for `Fc1ccc(-c2cn3nc(-c4ccccc4)c(-c4ccccc4)nc3n2)cc1`, the EC50 is > 20 µM (inactive). Next, `Cc1ccc(-c2cn3nc(-c4ccc(F)cc4)c(-c4ccc(F)cc4)nc3n2)cc1`: > 20 µM (inactive). Regarding `O=C(Nc1ccc2nc(-c3ccccc3)c(-c3ccccc3)nc2c1)C1CC1`, the EC50 is > 20 µM (inactive). `COc1ccc(-c2nc3nc(-c4ccc(S(C)(=O)=O)cc4)cn3nc2-c2ccc(OC)cc2)cc1`: the EC50 was > 20 µM (inactive).

`COc1cccc(-c2cn3nc(-c4ccc(C)cc4)c(-c4ccc(C)cc4)nc3n2)c1`: the EC50 is > 20 µM (inactive). `CC(C)OC(=O)Nc1ccc2nc(-c3ccccc3)c(-c3ccccc3)nc2c1`: the EC50 is > 20 µM (inactive).

Consider `CCCCOC(=O)Nc1ccc2nc(-c3ccccc3)c(-c3ccccc3)nc2c1`, for which the EC50 is > 20 µM (inactive). `CC(C)NC(=O)Nc1ccc2nc(-c3ccccc3)c(-c3ccccc3)nc2c1`: the EC50 was > 20 µM (inactive). In the case of `O=C(Nc1ccc2nc(-c3cccs3)c(-c3cccs3)nc2c1)OCc1ccccc1`, the EC50 was > 20 µM (inactive). `Cc1ccc(-c2nc3nc(-c4ccccc4)cn3nc2-c2ccc(C)cc2)cc1`: the EC50 is 5.4 µM.

As to `O=C(Nc1ccc2nc(-c3cccs3)c(-c3cccs3)nc2c1)C1CC1`, the EC50 is > 20 µM (inactive). Next, `CCCOC(=O)Nc1ccc2nc(-c3ccccc3)c(-c3ccccc3)nc2c1`: > 20 µM (inactive). For the compound `CC(C)(C)C(=O)Nc1ccc2nc(-c3ccccc3)c(-c3ccccc3)nc2c1`, the EC50 is > 20 µM (inactive). Take `O=S(=O)(Nc1ccc2nc(-c3cccs3)c(-c3cccs3)nc2c1)C1CC1`: the EC50 is > 20 µM (inactive).

With `FC(F)(F)Oc1ccc(-c2cn3nc(-c4ccccc4)c(-c4ccccc4)nc3n2)cc1`, the EC50 is > 20 µM (inactive).

Take `COc1ccc(-c2nc3nc(-c4cccc(F)c4)cn3nc2-c2ccc(OC)cc2)cc1`: the EC50 is 4.4 µM. On to `COc1ccc(-c2nc3nc(-c4ccccc4OC)cn3nc2-c2ccc(OC)cc2)cc1`, for which the EC50 was 5.2 µM. For the compound `CC(C)CS(=O)(=O)Nc1ccc2nc(-c3ccccc3)c(-c3ccccc3)nc2c1`, the EC50 is > 20 µM (inactive). For the compound `O=C(Nc1ccc2nc(-c3cccs3)c(-c3cccs3)nc2c1)C1CCCC1`, the EC50 was > 20 µM (inactive). On to `Cc1ccc(-c2nc3nc(-c4ccc(C#N)cc4)cn3nc2-c2ccc(C)cc2)cc1`, for which the EC50 was 11.2 µM. Consider `COC(=O)Nc1ccc2nc(-c3ccccc3)c(-c3ccccc3)nc2c1`, for which the EC50 is > 20 µM (inactive). In the case of `Cc1ccc(-c2nc3nc(-c4ccc(OC(F)(F)F)cc4)cn3nc2-c2ccc(C)cc2)cc1` it was > 20 µM (inactive); in that of `N#Cc1ccc(-c2cn3nc(-c4ccccc4)c(-c4ccccc4)nc3n2)cc1`, > 20 µM (inactive); in that of `Fc1cccc(-c2cn3nc(-c4ccccc4)c(-c4ccccc4)nc3n2)c1`, 18 µM. For the compound `CCCOC(=O)Nc1ccc2nc(-c3cccs3)c(-c3cccs3)nc2c1`, the EC50 was > 20 µM (inactive). Next, `COc1ccccc1-c1cn2nc(-c3ccc(F)cc3)c(-c3ccc(F)cc3)nc2n1`: 5.7 µM; `CCCCOC(=O)Nc1ccc2nc(-c3cccs3)c(-c3cccs3)nc2c1`: > 20 µM (inactive); `O=S(=O)(Nc1ccc2nc(-c3ccccc3)c(-c3ccccc3)nc2c1)C1CC1`: > 20 µM (inactive). `O=C(Nc1ccc2nc(-c3cccs3)c(-c3cccs3)nc2c1)NC1CCCC1`: the EC50 is > 20 µM (inactive). Next, `COc1ccc(-c2nc3nc(-c4ccc(OC(F)(F)F)cc4)cn3nc2-c2ccc(OC)cc2)cc1`: > 20 µM (inactive); `COc1ccc(-c2cn3nc(-c4ccc(C)cc4)c(-c4ccc(C)cc4)nc3n2)cc1`: > 20 µM (inactive); `COc1cccc(-c2cn3nc(-c4ccccc4)c(-c4ccccc4)nc3n2)c1`: > 20 µM (inactive). Turning to `N#Cc1ccc(-c2cn3nc(-c4ccc(F)cc4)c(-c4ccc(F)cc4)nc3n2)cc1`, the EC50 is > 20 µM (inactive). In the case of `O=C(Nc1ccc2nc(-c3ccccc3)c(-c3ccccc3)nc2c1)OCc1ccccc1` it was > 20 µM (inactive).

Take `CCCS(=O)(=O)Nc1ccc2nc(-c3ccccc3)c(-c3ccccc3)nc2c1`: the EC50 is > 20 µM (inactive). As to `COc1ccc(-c2cn3nc(-c4ccc(OC)cc4)c(-c4ccc(OC)cc4)nc3n2)cc1`, the EC50 was > 20 µM (inactive). Take `Cc1ccc(-c2nc3nc(-c4cccc(F)c4)cn3nc2-c2ccc(C)cc2)cc1`: the EC50 is > 20 µM (inactive). Regarding `O=C(Nc1ccc2nc(-c3cccs3)c(-c3cccs3)nc2c1)C1CCC1`, the EC50 is > 20 µM (inactive). For the compound `COc1ccc(-c2nc3nc(-c4ccc(C)cc4)cn3nc2-c2ccc(OC)cc2)cc1`, the EC50 was > 20 µM (inactive). `CC(C)(C)NC(=O)Nc1ccc2nc(-c3ccccc3)c(-c3ccccc3)nc2c1`: the EC50 is > 20 µM (inactive). With `O=C(Nc1ccc2nc(-c3ccccc3)c(-c3ccccc3)nc2c1)C1CCCC1`, the EC50 is > 20 µM (inactive). Next, `CC(Oc1ccccc1)C(=O)Nc1ccc2nc(-c3ccccc3)c(-c3ccccc3)nc2c1` (stereo unspecified): > 20 µM (inactive). Turning to `COc1ccc(-c2nc3nc(-c4cccc(OC)c4)cn3nc2-c2ccc(OC)cc2)cc1`, the EC50 was > 20 µM (inactive). Regarding `CC(C)CS(=O)(=O)Nc1ccc2nc(-c3cccs3)c(-c3cccs3)nc2c1`, the EC50 is > 20 µM (inactive).

For the compound `Fc1ccc(-c2nc3nc(-c4cccc(F)c4)cn3nc2-c2ccc(F)cc2)cc1`, the EC50 is 5.7 µM.

Consider `Cc1ccc(-c2cn3nc(-c4ccc(C)cc4)c(-c4ccc(C)cc4)nc3n2)cc1`, for which the EC50 is > 20 µM (inactive). For `CC(C)NC(=O)Nc1ccc2nc(-c3cccs3)c(-c3cccs3)nc2c1`, the EC50 is > 20 µM (inactive).

With `COc1ccc(-c2cn3nc(-c4ccc(F)cc4)c(-c4ccc(F)cc4)nc3n2)c(OC)c1`, the EC50 was 1.5 µM. As for `Cc1ccc(-c2nc3nc(-c4ccc(F)cc4)cn3nc2-c2ccc(C)cc2)cc1`, the EC50 is > 20 µM (inactive). As for `COc1cccc(-c2cn3nc(-c4ccc(F)cc4)c(-c4ccc(F)cc4)nc3n2)c1`, the EC50 is 7.9 µM. Consider `Clc1ccc(-c2cn3nc(-c4ccccc4)c(-c4ccccc4)nc3n2)c(Cl)c1`, for which the EC50 was > 20 µM (inactive). Take `CCNC(=O)Nc1ccc2nc(-c3cccs3)c(-c3cccs3)nc2c1`: the EC50 is > 20 µM (inactive). For the compound `Fc1ccc(-c2cn3nc(-c4ccc(F)cc4)c(-c4ccc(F)cc4)nc3n2)cc1`, the EC50 is 4 µM. Turning to `CCC(=O)Nc1ccc2nc(-c3cccs3)c(-c3cccs3)nc2c1`, the EC50 is > 20 µM (inactive). For `COc1ccc(-c2cn3nc(-c4ccc(C)cc4)c(-c4ccc(C)cc4)nc3n2)c(OC)c1`, the EC50 is > 20 µM (inactive). On to `COc1ccccc1-c1cn2nc(-c3ccccc3)c(-c3ccccc3)nc2n1`, for which the EC50 was > 20 µM (inactive). As to `CCS(=O)(=O)Nc1ccc2nc(-c3ccccc3)c(-c3ccccc3)nc2c1`, the EC50 was > 20 µM (inactive). Regarding `COc1ccccc1-c1cn2nc(-c3ccc(C)cc3)c(-c3ccc(C)cc3)nc2n1`, the EC50 was > 20 µM (inactive). Consider `COc1ccc(-c2nc3nc(-c4ccc(OC)cc4OC)cn3nc2-c2ccc(OC)cc2)cc1`, for which the EC50 is > 20 µM (inactive). `COc1ccc(-c2cn3nc(-c4ccccc4)c(-c4ccccc4)nc3n2)c(OC)c1`: the EC50 is > 20 µM (inactive). Next, `CC(C)OC(=O)Nc1ccc2nc(-c3cccs3)c(-c3cccs3)nc2c1`: > 20 µM (inactive); `CC(=O)Nc1ccc2nc(-c3ccccc3)c(-c3ccccc3)nc2c1`: > 20 µM (inactive); `CCNC(=O)Nc1ccc2nc(-c3ccccc3)c(-c3ccccc3)nc2c1`: > 20 µM (inactive). Turning to `Cc1ccc(-c2nc3nc(-c4ccc(S(C)(=O)=O)cc4)cn3nc2-c2ccc(C)cc2)cc1`, the EC50 was > 20 µM (inactive). Next, `CCOC(=O)Nc1ccc2nc(-c3cccs3)c(-c3cccs3)nc2c1`: > 20 µM (inactive); `CCCS(=O)(=O)Nc1ccc2nc(-c3cccs3)c(-c3cccs3)nc2c1`: > 20 µM (inactive). In the case of `Fc1ccc(-c2nc3nc(-c4ccccc4)cn3nc2-c2ccc(F)cc2)cc1`, the EC50 is 8.9 µM.

`O=C(Nc1ccc2nc(-c3ccccc3)c(-c3ccccc3)nc2c1)C1CCCCC1`: the EC50 is > 20 µM (inactive). In the case of `CCOC(=O)Nc1ccc2nc(-c3ccccc3)c(-c3ccccc3)nc2c1` it was > 20 µM (inactive); in that of `CCNC(=S)Nc1ccc2nc(-c3ccccc3)c(-c3ccccc3)nc2c1`, > 20 µM (inactive). In the case of `COc1ccc(-c2nc3nc(-c4ccccc4)cn3nc2-c2ccc(OC)cc2)cc1`, the EC50 is > 20 µM (inactive). Regarding `COc1ccc(-c2cn3nc(-c4ccc(F)cc4)c(-c4ccc(F)cc4)nc3n2)cc1`, the EC50 is > 20 µM (inactive).
